Test results taken from US20230382925A1, “MODULATORS OF CYSTIC FIBROSIS TRANSMEMBRANE CONDUCTANCE REGULATOR” (VERTEX PHARMACEUTICALS INCORPORATED, priority 2020, published 2023).
Like-named read-outs stand apart in the source and are kept apart here.

Biological target: CFTR (Homo sapiens, UniProt P13569)
Assay: Membrane Potential Dye, Enteroid Assay B
Assay type: cell-based
Description: Base medium (ADF+++) consisted of Advanced […], 2 mM Glutamax, 10 mM HEPES, 1 μg/mL penicillin/streptomycin.
Intestinal enteroid maintenance medium (IEMMN) consisted of ADF+++, 1× B27 supplement, 1× N2 supplement, 1.25 mM N-acetyl cysteine, 10 mM Nicotinamide, 50 ng/mL hEGF, 10 nM Gastrin, 1 μg/mL hR-spondin-1, 100 ng/mL hNoggin, TGF-b type 1 inhibitor A-83-01, 100 μg/mL Primocin, 10 μM P38 MAPK inhibitor SB202190.
Bath 1 Buffer consisted of 1 mM MgCl2, 160 mM NaCl, 4.5 mM KCl, 10 mM HEPES, 10 mM Glucose, 2 mM CaCl2).
Chloride Free Buffer consisted of 1 mM Magnesium Gluconate, 2 mM Calcium Gluconate, 4.5 mM Potassium Gluconate, 160 mM Sodium Gluconate, 10 mM HEPES, 10 mM Glucose.
Bath 1 Dye Solution consisted of Bath 1 Buffer, 0.04% Pluronic F127, 20 μM Methyl Oxonol, 30 μM CaCCinh-A01, 30 μM Chicago Sky Blue.
Chloride Free Dye Solution consisted of Chloride Free Buffer, 0.04% Pluronic F127, 20 μM Methyl Oxonol, 30 μM CaCCinh-A01, 30 μM Chicago Sky Blue.
Chloride Free Dye Stimulation Solution consisted of Chloride Free Dye Solution, 10 μM forskolin, 100 μM IBMX, and 300 nM Compound III.
Human intestinal epithelial enteroid cells were obtained from the Hubrecht Institute for Developmental Biology and Stem Cell Research, Utrecht, The Netherlands and expanded in T-Flasks as previously described (Dekkers J F, Wiegerinck C L, de Jonge H R, Bronsveld I, Janssens H M, de Winter-de Groot K M, Brandsma A M, de Jong N W M, Bijvelds M J C, Scholte B J, Nieuwenhuis E E S, van den Brink S, Clevers H, van der Ent C K, Middendorp S and M Beekman J M. A functional CFTR assay using primary cystic fibrosis intestinal organoids. Nat Med. 2013 July; 19(7):939-45.).
3. Enteroid Cell Harvesting and Seeding
Cells were recovered in cell recovery solution, collected by centrifugation at 650 rpm for 5 min at 4° C., resuspended in TrypLE and incubated for 5 min at 37° C. Cells were then collected by centrifugation at 650 rpm for 5 min at 4° C. and resuspended in IEMM containing 10 μM ROCK inhibitor (RI). The cell suspension was passed through a 40 μm cell strainer and resuspended at 1×10^6 cells/mL in IEMM containing 10 μM RI. Cells were seeded at 5000 cells/well into multi-well plates and incubated for overnight at 37° C., 95% humidity and 5% CO2 prior to assay.
5. Membrane Potential Dye, Enteroid Assay B
Enteroid cells were incubated with test compound in IEMM for 18-24 hours at 37° C., 95% humidity and 5% CO2. […] Briefly, cells were washed 5 times in Bath 1 Buffer. Bath 1 Dye Solution was added and the cells were incubated for 25 min at room temperature. Following dye incubation, cells were washed 3 times in Chloride Free Dye Solution. Chloride transport was initiated by addition of Chloride Free Dye Stimulation Solution and the fluorescence signal was read for 15 min. […] Chloride transport was then expressed as a percentage of the chloride transport following treatment with 1 μM (14S)-8-[3-(2-{Dispiro[2.0.2.1]heptan-7-yl}ethoxy)-1H-pyrazol-1-yl]-12,12-dimethyl-2λ^6-thia-3,9,11,18,23-pentaazatetracyclo[17.3.1.111,14.05,10]tetracosa-1(22),5,7,9,19(23),20-hexaene-2,2,4-trione, 3 μM (R)-1-(2,2-difluorobenzo[d][1,3]dioxol-5-yl)-N-(1-(2,3-dihydroxypropyl)-6-fluoro-2-(1-hydroxy-2-methylpropan-2-yl)-1H-indol-5-yl)cyclopropanecarboxamide and 300 nM acute N-[2,4-bis(1,1-dimethylethyl)-5-hydroxyphenyl]-1,4-dihydro-4-oxoquinoline-3-carboxamide triple combination control (% Activity).

[1] = Table 10, read-out: Ent. B EC50

CFTR, sequence (P13569 with tags, fused parts or gaps DEL508-508): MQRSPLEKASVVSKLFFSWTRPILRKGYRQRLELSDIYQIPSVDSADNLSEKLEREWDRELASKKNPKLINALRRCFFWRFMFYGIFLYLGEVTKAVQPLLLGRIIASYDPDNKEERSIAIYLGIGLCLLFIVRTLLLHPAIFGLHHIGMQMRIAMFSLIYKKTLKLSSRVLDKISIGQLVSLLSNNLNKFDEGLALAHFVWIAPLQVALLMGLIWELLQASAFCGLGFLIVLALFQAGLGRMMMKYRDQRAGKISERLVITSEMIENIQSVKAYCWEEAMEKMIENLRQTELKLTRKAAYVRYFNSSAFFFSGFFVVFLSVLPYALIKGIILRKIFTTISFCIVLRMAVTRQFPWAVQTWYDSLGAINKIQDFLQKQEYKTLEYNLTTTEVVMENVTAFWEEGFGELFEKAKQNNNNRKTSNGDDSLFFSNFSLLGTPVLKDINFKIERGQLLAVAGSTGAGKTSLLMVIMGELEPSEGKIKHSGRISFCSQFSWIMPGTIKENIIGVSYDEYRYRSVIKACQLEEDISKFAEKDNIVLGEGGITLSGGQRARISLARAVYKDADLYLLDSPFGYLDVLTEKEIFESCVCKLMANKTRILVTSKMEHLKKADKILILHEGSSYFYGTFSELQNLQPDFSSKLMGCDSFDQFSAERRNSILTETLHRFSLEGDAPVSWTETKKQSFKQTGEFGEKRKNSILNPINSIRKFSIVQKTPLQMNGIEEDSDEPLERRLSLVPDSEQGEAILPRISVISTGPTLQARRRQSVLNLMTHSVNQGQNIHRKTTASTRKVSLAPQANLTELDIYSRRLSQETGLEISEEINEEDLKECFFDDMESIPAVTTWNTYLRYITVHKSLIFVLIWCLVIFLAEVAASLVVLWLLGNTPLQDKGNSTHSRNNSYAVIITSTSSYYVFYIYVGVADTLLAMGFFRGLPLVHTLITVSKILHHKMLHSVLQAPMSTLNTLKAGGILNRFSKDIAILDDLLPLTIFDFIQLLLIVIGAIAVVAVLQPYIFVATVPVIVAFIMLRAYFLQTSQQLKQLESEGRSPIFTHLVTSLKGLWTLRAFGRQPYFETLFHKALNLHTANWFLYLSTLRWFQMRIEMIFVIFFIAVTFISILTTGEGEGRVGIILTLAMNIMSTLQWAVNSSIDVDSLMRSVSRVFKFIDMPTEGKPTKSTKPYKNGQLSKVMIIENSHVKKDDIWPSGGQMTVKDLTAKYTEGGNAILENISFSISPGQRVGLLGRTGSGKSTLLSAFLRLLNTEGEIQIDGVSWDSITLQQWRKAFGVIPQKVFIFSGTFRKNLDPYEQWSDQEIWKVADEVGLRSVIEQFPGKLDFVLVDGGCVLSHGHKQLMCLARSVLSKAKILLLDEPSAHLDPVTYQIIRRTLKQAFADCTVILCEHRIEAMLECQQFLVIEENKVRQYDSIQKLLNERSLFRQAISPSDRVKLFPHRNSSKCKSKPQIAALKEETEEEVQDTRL

| Structure (SMILES) | Ent. B Max Activity (%) (Table 9) | EC50 (Table 9, read-out: Ent. B EC50) | further results |
| --- | --- | --- | --- |
| Cc1cccc(C)c1-c1cc2nc(n1)NS(=O)(=O)c1cccc(c1)C(=O)N([C@@H]1CC[C@@H]1C1CC1)[C@H](CC(C)(C)C)CO2 (racemic) [Compound 149, (11R)-12-(2-Cyclopropylcyclobutyl)-6-(2,6-dimethylphenyl)-11-(2,2-dimethylpropyl)-2,2-dioxo-9-oxa-2λ^6-thia-3,5,12,19-tetrazatricyclo[12.3.1.14,8]nonadeca-1(18),4(19),5,7,14,16-hexaen-13-one] | – | – | Ent. B Max Activity (%) (Table 10): +++ (+++ is >60%); EC50 [1]: < 1000 nM |
| [H][C@]1(N2C(=O)c3cccc(c3)S(=O)(=O)Nc3nc(cc(-c4c(C)cccc4C)n3)OC[C@H]2CCC(C)C)C[C@@]2(C[C@H](C(C)(C)O)C2)C1 (single isomer, unassigned) [Compound 4] | – | – | Ent. B Max Activity (%) (Table 10): +++ (+++ is >60%); EC50 [1]: < 1000 nM |
| [H][C@]1(N2C(=O)c3cccc(c3)S(=O)(=O)Nc3nc(cc(-c4c(C)cccc4C)n3)OC[C@H]2CCC(C)C)C[C@@]2(C[C@H](C(C)(C)O)C2)C1 (single isomer, unassigned) [Compound 5] | – | – | Ent. B Max Activity (%) (Table 10): +++ (+++ is >60%); EC50 [1]: < 1000 nM |
| Cc1cccc(C)c1-c1cc2nc(n1)NS(=O)(=O)c1cccc(c1)C(=O)N(C1CC3(C1)CC(C(C)(C)O)C3)[C@H](CCC(C)(C)C)CO2 (single isomer, unassigned) [Compound 8] | – | – | Ent. B Max Activity (%) (Table 10): +++ (+++ is >60%); EC50 [1]: < 1000 nM |
| Cc1cccc(C)c1-c1cc2nc(n1)NS(=O)(=O)c1cccc(c1)C(=O)N(C1CC3(C1)CC(C(C)(C)O)C3)[C@H](CCC(C)(C)C)CO2 (single isomer, unassigned) [Compound 9] | – | – | Ent. B Max Activity (%) (Table 10): +++ (+++ is >60%); EC50 [1]: < 1000 nM |
| Cc1cccc(C)c1-c1cc2nc(n1)NS(=O)(=O)c1cccc(c1)C(=O)N(C1CCN(C(=O)OC(C)C)C1)[C@H](CC(C)C)CO2 (single isomer, unassigned) [Compound 38] | – | – | Ent. B Max Activity (%): ++ (++ is 30-60%); EC50 (read-out: Ent. B EC50): < 1000 nM |
| Cc1cccc(C)c1-c1cc2nc(n1)NS(=O)(=O)c1cccc(c1)C(=O)N(C1CCN(C(=O)OC(C)C)C1)[C@H](CC(C)C)CO2 (single isomer, unassigned) [Compound 39] | – | – | Ent. B Max Activity (%): +++ (+++ is >60%); EC50 (read-out: Ent. B EC50): < 1000 nM |
| Cc1cccc(C)c1-c1cc2nc(n1)NS(=O)(=O)c1cccc(c1)C(=O)N([C@H]1C[C@@H](OC(C)C)C1)[C@H](CC(C)C)CO2 (single isomer, unassigned) [Compound 45] | +++ (+++ is >60%) | < 1000 nM | – |
| Cc1cccc(C)c1-c1cc2nc(n1)NS(=O)(=O)c1cccc(c1)C(=O)N([C@H]1C[C@@H](OC(C)C)C1)[C@H](CC(C)C)CO2 (single isomer, unassigned) [Compound 46] | +++ (+++ is >60%) | < 1000 nM | – |
| COC(=O)NC1CC(N2C(=O)c3cccc(c3)S(=O)(=O)Nc3nc(cc(-c4c(C)cccc4C)n3)OC[C@H]2CC2(C(F)(F)F)CC2)C1 (single isomer, unassigned) [Compound 53] | +++ (+++ is >60%) | < 1000 nM | – |
| Cc1cccc(C)c1-c1cc2nc(n1)NS(=O)(=O)c1cccc(c1)C(=O)N([C@H]1C[C@@H](NC(=O)OC(C)(C)C)C1)[C@H](CC1(C(F)(F)F)CC1)CO2 (single isomer, unassigned) [Compound 54] | +++ (+++ is >60%) | < 1000 nM | – |
| Cc1cccc(C)c1-c1cc2nc(n1)NS(=O)(=O)c1cccc(c1)C(=O)N([C@H]1C[C@@H](NC(=O)OC(C)(C)C)C1)[C@H](CC1(C(F)(F)F)CC1)CO2 (single isomer, unassigned) [Compound 55] | +++ (+++ is >60%) | < 1000 nM | – |
| Cc1cccc(C)c1-c1cc2nc(n1)NS(=O)(=O)c1cccc(c1)C(=O)N([C@H]1C[C@@H](N)C1)[C@H](CC1(C(F)(F)F)CC1)CO2 (single isomer, unassigned) [Compound 56] | +++ (+++ is >60%) | < 1000 nM | – |
| Cc1cccc(C)c1-c1cc2nc(n1)NS(=O)(=O)c1cccc(c1)C(=O)N([C@H]1C[C@H](N)C1)[C@H](CC1(C(F)(F)F)CC1)CO2 (single isomer, unassigned) [Compound 57] | +++ (+++ is >60%) | < 1000 nM | – |
| COC(=O)NC1CC(N2C(=O)c3cccc(c3)S(=O)(=O)Nc3nc(cc(-c4c(C)cccc4C)n3)OC[C@H]2CC2(C(F)(F)F)CC2)C1 (single isomer, unassigned) [Compound 58] | +++ (+++ is >60%) | < 1000 nM | – |
| Cc1cccc(C)c1-c1cc2nc(n1)NS(=O)(=O)c1cccc(c1)C(=O)N(C1CC(NC(=O)OC(C)C)C1)[C@H](CC1(C(F)(F)F)CC1)CO2 (single isomer, unassigned) [Compound 59] | +++ (+++ is >60%) | < 1000 nM | – |
| Cc1cccc(C)c1-c1cc2nc(n1)NS(=O)(=O)c1cccc(c1)C(=O)N(C1CC(NC(=O)OC(C)C)C1)[C@H](CC1(C(F)(F)F)CC1)CO2 (single isomer, unassigned) [Compound 60] | +++ (+++ is >60%) | < 1000 nM | – |
| Cc1cccc(C)c1-c1cc2nc(n1)NS(=O)(=O)c1cccc(c1)C(=O)N(C1CC(N(C)C)C1)[C@H](CC1(C(F)(F)F)CC1)CO2 (single isomer, unassigned) [Compound 61] | – | – | Ent. B Max Activity (%) (Table 10): +++ (+++ is >60%); EC50 [1]: < 1000 nM |
| Cc1cccc(C)c1-c1cc2nc(n1)NS(=O)(=O)c1cccc(c1)C(=O)N([C@H]1C[C@@H](NC(=O)OC(C)C)C1)[C@H](CC(C)C)CO2 (single isomer, unassigned) [Compound 63] | – | – | Ent. B Max Activity (%): +++ (+++ is >60%); EC50 (read-out: Ent. B EC50): < 1000 nM |
| Cc1cccc(C)c1-c1cc2nc(n1)NS(=O)(=O)c1cccc(c1)C(=O)N([C@H]1C[C@@H](NC(=O)OC(C)C)C1)[C@H](CC(C)C)CO2 (single isomer, unassigned) [Compound 64] | – | – | Ent. B Max Activity (%): +++ (+++ is >60%); EC50 (read-out: Ent. B EC50): < 1000 nM |
| COC(=O)NC1CC2(C1)CC(N1C(=O)c3cccc(c3)S(=O)(=O)Nc3nc(cc(-c4c(C)cccc4C)n3)OC[C@H]1CC(C)(C)C(F)(F)F)C2 (single isomer, unassigned) [Compound 75] | +++ (+++ is >60%) | < 1000 nM | – |
| COC(=O)NC1CC2(C1)CC(N1C(=O)c3cccc(c3)S(=O)(=O)Nc3nc(cc(-c4c(C)cccc4C)n3)OC[C@H]1CC(C)(C)C(F)(F)F)C2 (single isomer, unassigned) [Compound 76] | +++ (+++ is >60%) | < 1000 nM | – |
| COC(=O)NC1CC2(C1)CC(N1C(=O)c3cccc(c3)S(=O)(=O)Nc3nc(cc(-c4c(C)cccc4C)n3)OC[C@H]1CC(C)(C)C)C2 (single isomer, unassigned) [Compound 91] | +++ (+++ is >60%) | < 1000 nM | – |
| Cc1cccc(C)c1-c1cc2nc(n1)NS(=O)(=O)c1cccc(c1)C(=O)N(C1CC3(CC(NC(=O)OC(C)C)C3)C1)[C@H](CC(C)(C)C)CO2 (single isomer, unassigned) [Compound 93] | +++ (+++ is >60%) | < 1000 nM | – |
| COC(=O)NC1(C)CC2(CC(N3C(=O)c4cccc(c4)S(=O)(=O)Nc4nc(cc(-c5c(C)cccc5C)n4)OC[C@H]3CC(C)(C)C)C2)C1 (single isomer, unassigned) [Compound 95] | – | – | Ent. B Max Activity (%) (Table 10): +++ (+++ is >60%); EC50 [1]: < 1000 nM |
